Measured values as given in PMC10572743 (International Journal of Molecular Sciences, 2023).
Read-outs that look alike come from different tables or passages of the source. Marks after values point to notes of the source that are not given here.

Key:
[1] = tested on: TNF-α production in PBMC stimulated with LPS; conditions: previous research; read-out: PMBC-LPS/TNFα; cited from earlier work
[2] = biological target: BChE (Equus caballus, UniProt P81908); experiment: biochemical; assay type: biochemical; conditions: for inhibition at 500 µM / inhibition at 250 µM / inhibition at 350 µM: read-out: BChE % Inhibition
Chain of BChE (P81908 whole entry): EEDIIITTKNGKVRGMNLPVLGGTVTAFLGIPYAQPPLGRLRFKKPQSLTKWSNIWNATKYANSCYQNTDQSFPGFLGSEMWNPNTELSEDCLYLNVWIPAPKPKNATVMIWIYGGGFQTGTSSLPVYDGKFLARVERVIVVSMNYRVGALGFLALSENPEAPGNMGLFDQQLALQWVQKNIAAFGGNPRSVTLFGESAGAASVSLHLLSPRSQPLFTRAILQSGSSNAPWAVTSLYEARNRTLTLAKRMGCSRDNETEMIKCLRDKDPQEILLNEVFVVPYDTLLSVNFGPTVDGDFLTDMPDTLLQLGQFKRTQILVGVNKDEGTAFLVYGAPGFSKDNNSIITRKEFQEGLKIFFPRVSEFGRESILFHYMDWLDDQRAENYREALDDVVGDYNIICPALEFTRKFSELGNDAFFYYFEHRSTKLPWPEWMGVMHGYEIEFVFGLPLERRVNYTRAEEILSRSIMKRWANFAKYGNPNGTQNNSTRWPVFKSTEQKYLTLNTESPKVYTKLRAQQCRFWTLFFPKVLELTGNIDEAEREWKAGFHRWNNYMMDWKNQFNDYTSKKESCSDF

[3] = biological target: AChE (Electrophorus electricus, UniProt O42275); experiment: biochemical; assay type: biochemical; conditions: for inhibition at 500 µM: at maximal concentration tested 500 μM; for inhibition at 250 µM: at maximal concentration tested 250 μM; for selectivity AChE over BChE: from IC50 values of Table 2; for inhibition: at maximal concentration tested 350 μM
Chain of AChE (O42275 24-633): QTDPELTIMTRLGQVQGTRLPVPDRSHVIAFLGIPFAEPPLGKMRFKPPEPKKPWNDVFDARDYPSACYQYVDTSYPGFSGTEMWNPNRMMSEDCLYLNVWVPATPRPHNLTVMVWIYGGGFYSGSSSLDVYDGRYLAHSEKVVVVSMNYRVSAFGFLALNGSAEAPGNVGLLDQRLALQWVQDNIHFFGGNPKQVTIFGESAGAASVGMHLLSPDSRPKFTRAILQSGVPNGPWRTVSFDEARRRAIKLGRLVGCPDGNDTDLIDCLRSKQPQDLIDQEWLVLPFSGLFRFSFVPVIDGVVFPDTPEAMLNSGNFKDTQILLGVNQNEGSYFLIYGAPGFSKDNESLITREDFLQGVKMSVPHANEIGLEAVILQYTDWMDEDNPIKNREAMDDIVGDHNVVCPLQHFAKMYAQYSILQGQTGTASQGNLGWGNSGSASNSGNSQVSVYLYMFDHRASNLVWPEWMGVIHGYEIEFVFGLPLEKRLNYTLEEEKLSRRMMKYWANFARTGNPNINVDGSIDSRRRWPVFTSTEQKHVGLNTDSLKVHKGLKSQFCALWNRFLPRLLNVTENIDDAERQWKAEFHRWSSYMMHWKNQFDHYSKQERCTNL

[4] = tested on: TNF-α production in PBMC stimulated with LPS; experiment: Inhibition of TNF-α production in PBMCs stimulated with LPS (ELISA); assay type: cell-based; conditions: Homo sapiens, average of 2 independent experiments (donors), LPS 1 ng/mL, 24 h, read-out: IC50/μM (av.) PMBC-LPS/TNF-α
Method: PBMC isolation. Human peripheral blood mononuclear cells (PBMCs) were isolated from buffy coats obtained from healthy adult volunteers. The buffy coats were diluted with sterile PBS and layered over Lymphoprep (Axis-Shield Diagnostics, Dundee, UK). Tubes were centrifuged for 35 min at 400× g (RT; acceleration and break turned off). After centrifugation, the mononuclear ring was collected, transferred into a new 50 mL tube, and washed thrice with sterile PBS. The remaining erythrocytes were lysed with an isotonic solution of ammonium chloride (150 mM; Kemika, Zagreb, Croatia).
Treatment and stimulation of human PBMCs. Immediately after isolation, 200,000 PBMCs were seeded per well of a 96-well plate. Compounds were dissolved in 100% dimethyl sulfoxide (DMSO, Sigma, Darmstadt, Germany), and serial dilutions in DMSO were prepared and added to cells, with starting concentration for test compounds 100 µM or 1 µM for reference dexamethasone. […] Plates were incubated for 24 h at 37 °C, 5% CO2, followed by the collection of supernatants for measurement of TNF-α and cell viability assessment.
Enzyme-linked immunosorbent assay (ELISA) and cytotoxicity analysis. TNFα concentration in PBMC supernatants was measured using ELISA assay, using antibodies obtained from BD Pharmingen (San Diego, CA, USA) and recombinant human TNFα protein (standard) from R&D Systems (Minneapolis, MN, USA). Lumitrac 600 384-well plates (Greiner Bio-One, Kremsmünster, Austria) were coated overnight with 1 µg/mL of TNFα capture antibody diluted in phosphate-buffered saline (PBS, Thermo Fisher Scientific, Waltham, MA, USA), followed by a washing step and blocking with 5% sucrose in assay diluent (1% bovine serum albumin (BSA; Sigma, Darmstadt, Germany) in PBS) for 4 h at RT. After the blocking step, the plates were washed, and samples/standards were added to the plates. After overnight incubation at 4 °C, detection antibodies diluted in assay diluent to a final concentration of 250 ng/mL were added. Following incubation for 2 h at RT, plates were washed, and streptavidin-HRP (Thermo Fisher Scientific, Waltham, MA, USA) solution was added (final concentration 500 ng/mL, prepared in assay diluent). Plates were incubated for 20 min at RT in the dark and washed, followed by adding Luminol substrate (Sigma, Darmstadt, Germany). […] To evaluate cell viability, Cell Titer Glo reagent was used (Promega, Madison, WI, USA) according to the manufacturer’s instructions.
(§1) Data analysis. For ELISA, the blank was subtracted from measured RLU values, and TNFα concentrations in samples were interpolated from the standard curve. QC parameters for each plate were calculated from raw data. […] For viability assessment, the average luminescence value was calculated from all trigger vehicle samples, and the percentage of vehicle value was calculated for all samples. The compound effect was considered cytotoxic if reduction from a vehicle was ≥20%, and these concentrations were excluded from further analysis. IC50 values of tested compounds were determined in GraphPad Prism 9 software using nonlinear regression curve fit (four parameters, with variable slope).

[5] = tested on: PBMCs; experiment: Cell viability of PBMCs after incubation with compounds (ATP, Cell Titer Glo); assay type: cell-based
Method: The potential to act anti-inflammatory was evaluated for 1,2,3-triazole derivatives 1–31 in vitro in an assay where PBMCs from 2 healthy donors were stimulated with LPS to induce the immune response. As a measurement of response, the pro-inflammatory cytokine TNF-α was determined. […] […].
Treatment and stimulation of human PBMCs. Immediately after isolation, 200,000 PBMCs were seeded per well of a 96-well plate. Compounds were dissolved in 100% dimethyl sulfoxide (DMSO, Sigma, Darmstadt, Germany), and serial dilutions in DMSO were prepared and added to cells, with starting concentration for test compounds 100 µM or 1 µM for reference dexamethasone. After pre-incubation for 1h with the compounds, lipopolysaccharide (LPS) from E. coli 0111:B4 (Sigma, Darmstadt, Germany) was added to cells at 1 ng/mL final concentration. Plates were incubated for 24 h at 37 °C, 5% CO2, followed by the collection of supernatants for measurement of TNF-α and cell viability assessment.
Enzyme-linked immunosorbent assay (ELISA) and cytotoxicity analysis. TNFα concentration in PBMC supernatants was measured using ELISA assay, using antibodies obtained from BD Pharmingen (San Diego, CA, USA) and recombinant human TNFα protein (standard) from R&D Systems (Minneapolis, MN, USA). Lumitrac 600 384-well plates (Greiner Bio-One, Kremsmünster, Austria) were coated overnight with 1 µg/mL of TNFα capture antibody diluted in phosphate-buffered saline (PBS, Thermo Fisher Scientific, Waltham, MA, USA), followed by a washing step and blocking with 5% sucrose in assay diluent (1% bovine serum albumin (BSA; Sigma, Darmstadt, Germany) in PBS) for 4 h at RT. After the blocking step, the plates were washed, and samples/standards were added to the plates. […]. Following incubation for 2 h at RT, plates were washed, and streptavidin-HRP (Thermo Fisher Scientific, Waltham, MA, USA) solution was added (final concentration 500 ng/mL, prepared in assay diluent). Plates were incubated for 20 min at RT in the dark and washed, followed by adding Luminol substrate (Sigma, Darmstadt, Germany). Luminescence was measured using EnVision 2104 Multilabel Plate Reader (PerkinElmer, MA, USA), with an exposition time of 0.1 s. […]
as §1, with “The compound effect was considered cytotoxic if reduction from a vehicle was ≥20%, and these concentrations were excluded from further analysis.” left out

[6] = PBMC, ATP levels, highest tested concentration

In the case of C=CCn1nnc2ccc3sccc3c21 [A], the IC50 [1] is given as 27.7 µM.

In the case of COc1ccc2ccc3nnn(C(C)C)c3c2c1 [Compound 1, 1-isopropyl-8-methoxy-1H-naphtho[1,2-d][1–3]triazole], the IC50 [2] is reported as 261 µM, the inhibition at 500 µM [2] is reported as 65.3 ± 0.7% and the IC50 [3] is reported as 329 µM. The inhibition at 500 µM [3] was 58.1 ± 1.6% and the IC50 [4] was 8.1 µM.

Molecule C=CCCn1nnc2ccc3ccc(OC)cc3c21 [Compound 2, 1-(but-3-en-1-yl)-8-methoxy-1H-naphtho[1,2-d][1–3]triazole] has an IC50 [2] of 110 µM, an inhibition at 500 µM [2] of 80.2 ± 0.7% and an IC50 [3] of 91.8 µM. It also gave an inhibition at 500 µM [3] of 77.9 ± 3.6% and an IC50 [4] of 10.4 µM.

For C=CCCCn1nnc2ccc3ccc(OC)cc3c21 [Compound 3, 8-methoxy-1-(pent-4-en-1-yl)-1H-naphtho[1,2-d][1–3]triazole], the IC50 [2] was 53.5 µM, the inhibition at 250 µM [2] was 76.6 ± 1.8% and the IC50 [3] was 51.3 µM. For the same molecule, the inhibition at 250 µM [3] was 64.8 ± 5.3% and the IC50 [4] was 12 µM.

COc1ccc2ccc3nnn(Cc4ccc(F)cc4)c3c2c1 [Compound 4, 1-(4-fluorobenzyl)-8-methoxy-1H-naphtho[1,2-d][1–3]triazole] gave an inhibition at 500 µM [2] of 25 ± 0.5%, an inhibition at 500 µM [3] of 35.1 ± 2% and an IC50 [4] of 19.1 µM.

For COc1ccc2ccc3nnn(Cc4cccc(F)c4)c3c2c1 [Compound 5, 1-(3-fluorobenzyl)-8-methoxy-1H-naphtho[1,2-d][1–3]triazole], the inhibition at 250 µM [2] was 43.8 ± 1.8%, the IC50 [3] was 55.5 µM and the inhibition at 250 µM [3] was 80.8 ± 1.8%. For the same molecule, the “selectivity AChE over BChE” value [3] was “Selective inhibition toward AChE” and the IC50 [4] was greater than 100 µM.

Work on COc1cccc(Cn2nnc3ccc4ccc(OC)cc4c32)c1 [Compound 6, 8-methoxy-1-(3-methoxybenzyl)-1H-naphtho[1,2-d][1–3]triazole] yielded an inhibition at 250 µM [2] of 47.8 ± 0.5%, an IC50 [3] of 177 µM and an inhibition at 250 µM [3] of 78.6 ± 3.8%. The “selectivity AChE over BChE” value [3] was “Selective inhibition toward AChE” and the IC50 [4] was 1.9 µM.

Molecule COc1ccc2ccc3nnn(Cc4cccs4)c3c2c1 [Compound 7, 8-methoxy-1-(thiophen-2-ylmethyl)-1H-naphtho[1,2-d][1–3]triazole] has an IC50 [2] of 294 µM, an inhibition at 500 µM [2] of 60.9 ± 0.4% and an IC50 [3] of 110 µM. The inhibition at 500 µM [3] was 81.4 ± 0.8% and the IC50 [4] was greater than 100 µM.

For C=CCn1nnc2ccc3sc(C)cc3c21 [Compound 8, 1-allyl-7-methyl-1H-thieno[3′,2′:3,4]benzo[1,2-d][1–3]triazole], the IC50 [2] was 206 µM, the inhibition at 350 µM [2] was 62.6 ± 0.2% and the inhibition [3] was 43.5 ± 2.1%. The IC50 [4] was greater than 100 µM.

Work on Cc1cc2c(ccc3nnn(Cc4ccc(F)cc4)c32)s1 [Compound 9, 1-(4-fluorobenzyl)-7-methyl-1H-thieno[3′,2′:3,4]benzo[1,2-d][1–3]triazole] yielded an IC50 [2] of 69.8 µM, an inhibition at 350 µM [2] of 76.1 ± 0.8% and an IC50 [3] of 83 µM. It also gave an inhibition [3] of 78.8 ± 1.9% and an IC50 [4] greater than 100 µM.

Work on COc1ccc(Cn2nnc3ccc4sc(C)cc4c32)cc1 [Compound 10, 1-(4-methoxybenzyl)-7-methyl-1H-thieno[3′,2′:3,4]benzo[1,2-d][1–3]triazole] yielded an IC50 [2] of 99.7 µM, an inhibition at 350 µM [2] of 65.2 ± 0.3% and an IC50 [3] of 66.6 µM. The inhibition [3] was 83.6 ± 3.7% and the IC50 [4] was 19.2 µM.

For Cc1cc2c(ccc3nnn(Cc4cccs4)c32)s1 [Compound 11, 7-methyl-1-(thiophen-2-ylmethyl)-1H-thieno[3′,2′:3,4]benzo[1,2-d][1–3]triazole], the IC50 [2] was 123 µM, the inhibition at 350 µM [2] was 72.3 ± 5.6% and the IC50 [3] was 218 µM. The inhibition [3] was 71.3 ± 0.3% and the IC50 [4] was 38.7 µM.

For Cc1cc2c(ccc3nnn(Cc4ccco4)c32)s1 [Compound 12, 1-(furan-2-ylmethyl)-7-methyl-1H-thieno[3′,2′:3,4]benzo[1,2-d][1–3]triazole], the inhibition at 350 µM [2] was 46.1%, the inhibition [3] was 41.8 ± 1% and the IC50 [4] was 40.6 µM.

With C=CCCCn1nnc2ccc3sccc3c21 [Compound 13, 1-(pent-4-en-1-yl)-1H-thieno[3′,2′:3,4]benzo[1,2-d][1–3]triazole] the IC50 [2] was 40.7 µM, the “selectivity BChE over AChE” value ([2]; from IC50 values of Table 2) was “selective inhibition for BChE” and the inhibition at 250 µM [2] was 86.5 ± 5%. For the same molecule, the inhibition at 250 µM [3] was 46.4 ± 2.5% and the IC50 [4] was 21.3 µM.

Work on OCCCCn1nnc2ccc3sccc3c21 [Compound 14] yielded an IC50 [4] of 38.8 µM.

For c1cc2c(ccc3nnn(CCCN4CCOCC4)c32)s1 [Compound 16], the IC50 [4] was greater than 100 µM.

For CCOC(=O)CCn1nnc2ccc3sccc3c21 [Compound 17], the IC50 [4] was greater than 100 µM.

In the case of Fc1ccc(Cn2nnc3ccc4sccc4c32)cc1 [Compound 18], the IC50 [4] is reported as 27.7 µM.

With FC(F)(F)c1ccc(Cn2nnc3ccc4sccc4c32)cc1 [Compound 19] the IC50 [4] was 10.2 µM, the “cell viability” value [5] was 10.2 ** and the cell viability [5, 6] was “cell viability reduction”.

In the case of FC(F)(F)Oc1ccc(Cn2nnc3ccc4sccc4c32)cc1 [Compound 20], the IC50 [4] is reported as 8.9 µM and the cell viability [5, 6] is reported as “cell viability reduction”.

COc1ccc(CCn2nnc3ccc4sccc4c32)cc1 [Compound 21] gave an IC50 [4] of 17 µM.

Work on c1csc(Cn2nnc3ccc4sccc4c32)c1 [Compound 22] yielded an IC50 [4] of 16.1 µM.

Molecule OCCCCn1nnc2c1-c1ccsc1CC2 [Compound 23] has an IC50 [4] greater than 100 µM.

c1cc2c(s1)CCc1nnn(CCN3CCOCC3)c1-2 [Compound 24] gave an IC50 [4] greater than 100 µM.

Work on c1cc2c(s1)CCc1nnn(CCCN3CCOCC3)c1-2 [Compound 25] yielded an IC50 [4] greater than 100 µM.

In the case of FC(F)(F)c1ccc(Cn2nnc3c2-c2ccsc2CC3)cc1 [Compound 26], the IC50 [4] is reported as 9.4 µM and the cell viability [5, 6] is reported as “cell viability reduction”.

Cc1nc2c(ccc3sccc32)s1 [Compound 27] showed an IC50 [4] of 12.2 µM.

Molecule CC(C)c1nc2ccc3sccc3c2s1 [Compound 28] has an IC50 [4] greater than 100 µM.

For Clc1nc2c(ccc3sccc32)s1 [Compound 29], the IC50 [4] was greater than 100 µM.

Work on FC(F)(F)c1nc2c(ccc3sccc32)s1 [Compound 30] yielded an IC50 [4] greater than 100 µM.

Molecule CC(=O)Nc1nc2c(ccc3sccc32)s1 [Compound 31] has an IC50 [4] greater than 100 µM.

C[C@@H]1C[C@H]2[C@@H]3CCC4=CC(=O)C=C[C@]4(C)[C@@]3(F)[C@@H](O)C[C@]2(C)[C@@]1(O)C(=O)CO [dexamethasone, reference compound] gave an IC50 [4] of 0.007 µM.
